# Measurements as given in patent publication US6444688B1, “Compounds and compositions with nitrogen-containing non-basic side chains” (Eli Lilly and Company, priority 1995, dated 2002).
# pEC50: −log10 of the molar value.
# Assays:
# [1] = system: uterine eosinophil peroxidase activity; test: Uterine eosinophil peroxidase (EPO) assay, four day dosing; assay type: in vivo, Sprague Dawley rats; details: OVX rats, oral, daily for 4 days
# Procedure: (§1) Animals were dosed daily for 4 days. […] A blood sample was collected by cardiac puncture.
# [2] = system: MCF-7 breast adenocarcinoma cells; test: MCF-7 proliferation assay (tritiated thymidine); assay type: cell-based; details: Homo sapiens, MCF7; MCF-7 cells, 48 hours with drug, tritiated thymidine pulse 4 hours; read-out: ED50 (the source's name)
# Procedure: MCF-7 breast adenocarcinoma cells (ATCC HTB 22) were maintained in MEM (minimal essential medium, phenol red-free, Sigma, St. Louis, Mo.) supplemented with 10% fetal bovine serum (FBS) (V/V), L-glutamine (2 mM), sodium pyruvate (1 mM), HEPES {(N-[2-hydroxyethyl]piperazine-N′-[2-ethanesulfonic acid]10 mM}, non-essential amino acids and bovine insulin (1 μg/ml) (maintenance medium). Ten days prior to assay, MCF-7 cells were switched to maintenance medium supplemented with 10% dextrancoated charcoal stripped fetal bovine serum (DCC-FBS) assay medium) in place of 10% FBS to deplete internal stores of steroids. MCF-7 cells were removed from maintenance flasks using cell dissociation medium (Ca++/Mg++ free HBSS (phenol red-free) supplemented with 10 mM HEPES and 2 mM EDTA). Cells were washed twice with assay medium and adjusted to 80,000 cells/ml. Approximately […] (8,000 cells) were added to flat-bottom microculture wells (Costar 3596) and incubated at 37° C. in a 5% CO2 humidified incubator for 48 hours to allow for cell adherence and equilibration after transfer. Serial dilutions of drugs or DMSO as a diluent control were prepared in assay medium and […] to triplicate microcultures followed by […] assay medium for a final volume of […]. […] Samples were counted by liquid scintillation. […]
# [3] = system: ovariectomized (OVX) rats; test: Four day dosing regimen, post-menopausal rat model: wet uterine weight; assay type: in vivo, Sprague Dawley rats; details: OVX rats, oral, daily for 4 days
# Procedure: as §1
# [4] = system: ovariectomized (OVX) rats; test: Serum cholesterol analysis, four day dosing; assay type: in vivo, Sprague Dawley rats; details: Rattus norvegicus, po, 96 h, OVX rats, oral, daily for 4 days, read-out: Serum Cholesterol (% dec. OVX)
# Procedure: as §1
# Blood samples were allowed to clot at room temperature for 2 hours, and serum was obtained following centrifugation for 10 minutes at 3000 rpm. Serum cholesterol was determined using a Boehringer Mannheim Diagnostics high performance cholesterol assay. Briefly the cholesterol was oxidized to cholest-4-en-3-one and hydrogen peroxide. The hydrogen peroxide was then reacted with phenol and 4-aminophenazone in the presence of peroxidase to produce a p-quinone imine dye, which was read spectrophotemetrically at 500 nm. Cholesterol concentration was then calculated against a standard curve. The entire assay was automated using a Biomek Automated Workstation.
smiles,measurement,setting,value
COc1ccc(-c2sc3cc(OC)ccc3c2C(=O)c2ccc(OCC(=O)N3CCCCC3)cc2)cc1 [Compound 7],Uterine EPO (Vmax),[1]; dose 0.1 mg/kg,5.2 Vmax
same,Uterine EPO (Vmax),[1]; dose 1 mg/kg,3.7 Vmax
same,Uterine EPO (Vmax),[1]; dose 10 mg/kg,4.7 Vmax
same,pEC50,[2],< 6.00
same,Uterine Weight (% inc. OVX),[3]; dose 0.1 mg/kg,−0.5 % inc. OVX
same,Uterine Weight (% inc. OVX),[3]; dose 1 mg/kg,−16.2 % inc. OVX
same,Uterine Weight (% inc. OVX),[3]; dose 10 mg/kg,8.4 % inc. OVX
same,inhibition in vivo at 0.1 mg/kg,[4]; dose 0.1 mg/kg,3.4%
same,inhibition in vivo at 1 mg/kg,[4]; dose 1 mg/kg,14.6%
same,inhibition in vivo at 10 mg/kg,[4]; dose 10 mg/kg,-41.9%
